Publication PMC8899577, “Targeting the anti-apoptotic Bcl-2 family proteins: machine learning virtual screening and biological evaluation of new small molecules” (Theranostics, 2022)

Experiments:
Bcl-2 = Bcl-2 (Homo sapiens, UniProt P10415); experiment: SPR binding to immobilized Bcl-2; settings: SPR, 25 °C, 2-site fit, highest affinity site
Procedure: (§1) FastStep experiments were performed with a SensiQ Pioneer apparatus. Bcl-2 immobilization on COOH5 sensorchips was carried out essentially as previously reported, [40]. All the experiments were carried out at 25 °C in degassed HEPES 20 mM, pH 7.4, NaCl 150 mM, 0.005% surfactant P20 + 2% DMSO (HBSP2%D). […] Each sensorgram is the average of at least three experiments. The decrease in Response Units (RU) after 165 s indicates analyte dissociation from the immobilized Bcl-2 upon HSBP2%D buffer injection. Control SPR experiments were carried out measuring sensorgrams on Bcl-xL and Mcl-1 (ligands) immobilized on COOH5 sensorchips as previously reported at 25 °C in degassed HBSP2%D buffer. […] Each sensorgram is the average of at least three experiments. The decrease in RU after 180 s indicates analyte dissociation from the immobilized ligands upon HSBP2%D buffer injection. Kinetic evaluation of the sensorgrams was carried out using the Qdat 4.0 program; best fittings were obtained with 2 sites and indicated in red (reported KD values refer to dissociation constants of the highest affinity site).
Figure 2 SPR analysis of the interaction between putative inhibitors of Bcl-2 anti-apoptotic members and Bcl-2 protein. Bcl-2 was immobilized via amine coupling onto a COOH5 sensorchip; Bcl-2 family inhibitors (analytes) were injected at a flow rate = 100 μL/min, at the following concentrations. 0-30 s: 0.625 μM; 31-60 s: 1.25 μM; 61-90 s: 2.5 μM; 91-120 s: 5 μM; 121-150 s: 10 μM; 151-165 s: 20 μM. The increase in Response Units (RU) relative to baseline indicates complex formation between the immobilized Bcl-2 ligand and the analytes upon Bcl-2 family inhibitors injection. The decrease in RU after 165 s indicates analyte dissociation from the immobilized Bcl-2 upon buffer injection. Full fittings with 2 sites are indicated in red. The fitted KD values are the following.

M14 cells [1] = experiment: Western blot of PARP1 cleavage, M14; assay type: cell-based, Human; settings: 72 h
Procedure: (§2) Western blot analyses of total protein extracts were performed as previously described. Immunodetection was performed using antibodies directed to poly (ADP-ribose) polymerase (PARP; BD Biosciences San Diego, CA, USA), LC3B (Cell Signaling Technology, Danvers, MA), HSP72/73 (Calbiochem, EMD Biosciences, La Jolla, CA), Bcl-2 (SC-509, Santa Cruz Biotechnology Inc, Dallas, TX, USA), Bcl-xL (SC-271121, Santa Cruz Biotechnology Inc), Mcl-1 (SC-12756, Santa Cruz Biotechnology Inc) α-tubulin (Santa Cruz Biotechnology Inc) actin (Sigma-Aldrich, St. Louis, Missouri, USA). Anti-rabbit or anti-mouse immunoglobulin G-horseradish peroxidase-conjugated antibodies (Amersham Biosciences, Freiburg, Germany) were used as secondary antibody. Images were acquired by Image Lab Software (Bio-Rad, Hercules, CA, USA), using a ChemiDoc System instrument (Bio-Rad). The densitometric evaluation was performed using Image J software and normalized with relative controls.
Figure 5 Analysis of apoptosis induction by IS20 and IS21 in leukemia, melanoma and NSCLC cells. […] (A-F) Reported images are representative of two independent experiments with similar results. HSP72/73 or α-Tubulin are shown as loading and transferring control. (G) Flow cytometric quantification of cells in the subG1 peak of cell cycle distribution by propidium iodide staining in HL60 cell line treated with IS20 or IS21 (20 μM for 24 h) and in M14, H1299 and MDA-MB-231 cell lines treated with IS20 or IS21 (20 μM for 72 h). Data are reported as mean ± SD of three independent experiments. p-values were calculated between control (Ctrl) and treated cells, * p < 0.05. (H) Flow cytometric quantification of cells in the subG1 peak by propidium iodide staining in M14 and H1299 cell lines treated with IS20 or IS21 (20 μM, 72 h) in presence or absence of the pan caspase inhibitor z-VAD (50 μM). p-values were calculated between treated control (Ctrl) cells, # p < 0.01, ## p < 0.001 or between cells treated with IS20 or IS21 alone or in combination with z-VAD, * p < 0.05, ** p < 0.005. (G-H) Data are reported as mean of two (H) or three (G) experiments ± SD.

Mcl-1 = Mcl-1 (Homo sapiens, UniProt Q07820); experiment: SPR binding to immobilized Mcl-1; settings: analyte 0.3-30 µM
Mcl-1, sequence (Q07820 whole entry): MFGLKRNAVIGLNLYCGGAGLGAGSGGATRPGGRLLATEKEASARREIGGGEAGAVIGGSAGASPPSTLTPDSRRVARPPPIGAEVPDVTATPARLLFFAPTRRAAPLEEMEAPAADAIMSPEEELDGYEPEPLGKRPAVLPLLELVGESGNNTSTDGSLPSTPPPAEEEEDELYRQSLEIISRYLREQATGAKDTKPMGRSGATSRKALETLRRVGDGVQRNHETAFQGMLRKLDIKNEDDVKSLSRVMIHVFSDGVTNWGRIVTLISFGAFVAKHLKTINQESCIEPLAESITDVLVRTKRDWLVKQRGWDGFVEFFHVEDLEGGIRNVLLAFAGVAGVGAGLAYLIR
Procedure: as §1
Figure 3 SPR analysis of the interaction between IS20 or IS21 and Bcl-xL and Mcl-1 proteins. SPR experiments were carried out measuring sensorgrams on Bcl-xL and Mcl-1 (ligands) immobilized on COOH5 sensorchips at 25 °C in degassed HBSP2%D buffer. IS20 and IS21 (analytes) were injected at a flow rate = 30 μL/min, at the following concentrations: 0.3 μM (only for Mcl-1 experiments); 1 μM; 3 μM; 10 μM; 30 μM. Each sensorgram is the average of at least three experiments. The decrease in RU (Response Units) after 180 s indicates analyte dissociation from the immobilized ligands upon HSBP2%D buffer injection. The fitted KD values for Bcl-xL are the following. IS20: 0.42 ± 0.09 μM and IS21: 0.51 ± 0.17 μM. The fitted KD values for Mcl-1are the following. IS20: 3.9 ± 0.30 μM and IS21: 1.16 ± 0.14 μM;

M14 cells [2] = experiment: Western blot of LC3B-I/LC3B-II (autophagy), M14; assay type: cell-based, Human; settings: 72 h
Procedure: as §2
Figure 6 Analysis of autophagosome accumulation in M14 and H1299 cells after treatment with IS20 or IS21. Western blot analysis of LC3B-I and LC3B-II protein levels in (A) M14, and (B) H1299 cell lines untreated (Ctrl) or treated with IS20 or IS21 for 72 h at the indicated concentrations. (C) Western blot analysis of LC3B-I and LC3B-II levels in HL60 and U937 cell lines untreated (Ctrl) or treated with IS20 or IS21 (20 μM for 24 h). (A-C) Reported images are representative of two independent experiments with similar results. HSP72/73, Actin or α-Tubulin are shown as loading and transferring control. […] Ratio of LC3B-II on LC3B-I levels, after normalization on HSP72/73, Actin or α-Tubulin, is quantified by densitometric analysis. (D) (Upper panels) Representative images and (lower panels) relative quantification of fluorescence microscopic analysis of LC3B puncta positive cells in M14 EGFP-LC3B and H1299 EGFP-LC3B transfected cells, treated with IS20 or IS21 (20 µM for 72h). […] Cells with more than 10 puncta were considered autophagy-positive. p-values were calculated between untreated (Ctrl) and treated cells, * p < 0.05.

Bcl-2, sequence (P10415 whole entry): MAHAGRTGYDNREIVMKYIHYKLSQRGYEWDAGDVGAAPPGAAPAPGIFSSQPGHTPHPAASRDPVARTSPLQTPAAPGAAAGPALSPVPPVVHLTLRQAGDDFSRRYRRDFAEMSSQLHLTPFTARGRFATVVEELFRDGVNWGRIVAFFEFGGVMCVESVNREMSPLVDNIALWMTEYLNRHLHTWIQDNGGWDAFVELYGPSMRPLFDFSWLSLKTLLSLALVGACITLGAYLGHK

Row | Kd (Bcl-2) | Structure (SMILES) | PARP1 cleavage, M14 (M14 cells [1]) | further results
1 | 770 ± 140 nM | COc1ccc(-c2cc(C(F)F)nc(N3CCN(Cc4ccccc4C)CC3)n2)cc1OC [ISP] | – | –
2 | 3400 ± 1100 nM | CC(C)(C)c1ccc(-c2nnc(SCc3ccccc3F)n2N)cc1 [IS29] | – | –
3 | 4600 ± 900 nM | O=C(CN1CCN(Cc2ccccc2Cl)CC1)N/N=C/c1ccccc1C(F)(F)F [IS27] | – | –
4 | 480 ± 110 nM | CC(C)(C)c1ccc(C=NN2CCN(Cc3ccccc3Cl)CC2)cc1 [IS1] | – | –
5 | – | CC1(C)CCC(CN2CCN(c3ccc(C(=O)NS(=O)(=O)c4ccc(NCC5CCOCC5)c([N+](=O)[O-])c4)c(Oc4cnc5[nH]ccc5c4)c3)CC2)=C(c2ccc(Cl)cc2)C1 [ABT-199, venetoclax, reference compound] | PARP1 cleavage | interaction with Mcl-1 (SPR) (Mcl-1): negligible interaction
6 | – | CC1(C)CCC(c2ccc(Cl)cc2)=C(CN2CCN(c3ccc(C(=O)NS(=O)(=O)c4ccc(N[C@H](CCN5CCOCC5)CSc5ccccc5)c(S(=O)(=O)C(F)(F)F)c4)cc3)CC2)C1 [ABT-263, navitoclax, reference compound] | PARP1 cleavage | ratio of LC3B-II on LC3B-I / LC3B-II protein level, M14 (M14 cells [2]): increased
